What is called melting point is the temperature of the solid-liquid transition.

Each structure is given as a SMILES string.

On to `COC(=O)C(CCCCNC(=O)COCc1ccccc1)NC(=O)COCc1ccccc1` (stereo not given), for which the melting point was 62 to 65 °C.

`CCCC(=O)c1cccc2cc[nH]c12` displayed a melting point of 67.2 to 68.2 °C.

`CCn1ncc2c(NCC3CCCCC3)c3cc(C(=O)OC)ccc3nc21` came in with a melting point of 275 to 277 °C.

Regarding `Cc1ccc(C(C)(C)CCCCC(=O)O)cc1C`, the melting point was 71 to 73 °C.

`CC(C)N[C@H](C(=O)O)C(C)C` gave a melting point of over 300 °C. The figure for `O=C1Nc2ccccc2Cc2nccn21` is 238 to 240 °C; for `Cc1c(C(=O)NN2CCCCC2)nn(-c2ccc(Cl)cc2Cl)c1-c1ccc(OS(=O)(=O)CCC(F)(F)F)cc1` it is 160 °C; for `CC(=O)c1csc2ccc(OS(=O)(=O)c3ccccc3)cc12` it is 129 to 130 °C. The figure for `COC(Oc1cc(Cl)c(Cl)c(Cl)c1)C(=O)O` (stereo not given) is 101 to 104 °C; for `O=C(Nc1ccc(-n2nc(C(F)(F)F)cc2C2CC2)c(F)c1)c1ccncc1F` it is 161 to 165 °C.

`O=C1NCCN1CCNc1cc(-c2ccncc2)c(-c2ccccc2)nn1` displayed a melting point of 206 to 207 °C. `COc1ccc([N+](=O)[O-])c(/C=C/c2cc(/C=C/c3ccc4cc[nH]c4c3)n[nH]2)c1`: the melting point lay in the range of 104 to 109 °C. The figure for `COC(=O)/C=C/c1ccc(OCCCC(=O)OC)cc1O` is 108 to 112 °C; for `Cc1cc(-c2cc(CN3CCN(C)CC3)c(=O)n(Cc3ccc(Cl)cc3)n2)ccc1F` it is 133 to 134 °C. As to `O=C1N(N2CCOCC2)c2ccccc2C1(Cc1ccccc1)c1ccccc1` (stereo not given), the melting point was 159 to 161 °C.

On to `COC(=O)C[C@@H](CC(=O)C=Cc1c(-c2ccc(F)cc2)c(-c2ccccc2)c(C(=O)Nc2ccccc2)n1C(C)C)O[Si](C)(C)C(C)(C)C`, for which the melting point lay within 62 to 64 °C. The figure for `Cc1cccc(C)c1NC(=O)Nc1sc2ccc(Cl)cc2c1-c1ccccc1Cl` is 203 to 204 °C; for `O=S(=O)(c1ccc(C(F)(F)F)cc1)N1CCCC1c1ccc(F)cc1` (racemic) it is 85 °C. `C=CCCc1cc(C2(c3ccc(OC(F)F)cc3)N=C(N)N(C)C2=O)ccc1F` (stereo not given) had a melting point of 55 to 58 °C.

In turn, `COc1cc(O)c2c(=O)c(OC(C)C)c(-c3ccc(O)c(OC)c3)oc2c1` yielded a melting point of 169 to 171 °C. The figure for `CCCCCCCCCCCCCCOc1ccc(CN(C(C)=O)c2ccc(CBr)cc2)cc1` is 46 to 49 °C; for `CC1=C(C(=O)OCCOc2ccccc2)C(c2ccccc2OC(F)F)c2c(ccnc2OC(C)C)N1` (stereo not given) it is 122 to 124 °C; for `O=C1C(c2ccccc2)=C(c2ccccc2)C(=O)N1CCc1ccc(F)cc1` it is 153 to 154 °C. As for `C=C(CBr)S(=O)(=O)C(C)(C)C`, the figure is 40.5 to 42 °C; as for `CCOC(=O)CC[C@H](NC(=O)c1ccc(C=Cc2cnc3nc(NC(C)=O)nc(O)c3c2)cc1)C(=O)OCC`, over 200 °C. As for `CS(=O)(=O)c1ccc2c(c1)[nH]c(=O)c(=O)n2C1CCCCC1`, the figure is over 300 °C. In turn, `CCn1c(Nc2ccc(C(F)(F)F)cc2C(F)(F)F)nc(C(F)(F)F)c(Cl)c1=O` yielded a melting point of 124 °C. In turn, `N=C(N)N1CCN(C23CC4CC(CC(C4)C2)C3)CC1` registered a melting point of 182 to 186 °C.

`CC(=Cc1ccc(C(F)(F)F)cc1)C1OCC(S(=O)Cc2ccc(Cl)cc2)CO1` (stereo not given): the melting point lay in the range of 192 to 194 °C. Turning to `Cn1c(=O)c(C#N)c(N2CCN(C(=O)c3cccs3)CC2)c2ccccc21`, the melting point was found to be 247 °C.

`CCCCCCCCCCCCCCC1(C(=O)OC)CO1` (stereo not given) yielded a melting point of 47 to 48 °C. With `CCOC(=O)CCCc1ccc(Nc2ncc3cc(-c4c(Cl)cccc4Cl)c(=O)n(C)c3n2)cc1`, the melting point lay in the range of 169 to 170 °C. The figure for `O=C(O)Cc1cccc2c(-c3ccc(C(F)(F)F)cc3)nccc12` is 228 to 230 °C; for `CC12CCC(=O)C=C1CCC1C2=CCC2(C)C(=C(Cl)C(Cl)S(=O)c3ccccc3)CCC12` (stereo not given) it is 133 to 134 °C.

For the compound `C[C@@H](N(CC(=O)O)C(=O)c1ccc(C(F)(F)F)cc1F)[C@](O)(Cn1cncn1)c1ccc(F)cc1F` (relative stereo), the melting point was 191 to 192 °C. For `CN1C(=O)CCC2(C)c3ccc(Sc4ccc5ccccc5c4)cc3CCC12` (single isomer, unassigned; (+)), the melting point lay within 138 to 140 °C.

`ClCCN(CCCl)CCCCOc1cccc(Nc2c3ccccc3nc3c(OCCN(CCCl)CCCl)cccc23)c1` came in with a melting point of 95 to 96 °C. For the compound `O=C(O)CCc1cc(-c2ccc(Cl)cc2)n(-c2ccccc2)n1`, the melting point lay in the range of 138 to 139 °C. As for `O=C(O)COc1cccnc1-c1ccc(Cl)c(C(=O)NCC23CC4CC(CC(C4)C2)C3)c1`, the figure is 133 to 137 °C. Consider `COc1ccc(-c2cc(COS(C)(=O)=O)c(=O)n(Cc3ccc(F)c(F)c3)n2)cc1F`, for which the melting point lay in the range of 146 to 147 °C. The figure for `CC(C)NC(=N)NC(=N)NOCCCOc1ccc(Cl)cc1` is 98 to 100 °C. The figure for `CCC(=Cc1cccc([N+](=O)[O-])c1)[N+](=O)[O-]` is 68 to 72 °C. The figure for `BrCc1nc2cc(OCc3ccccc3)ccc2s1` is 87 to 89 °C. As to `COC(=O)c1oc2cc3ccccc3cc2c1OC`, the melting point was 121 to 124 °C. The figure for `O=C(O)CCC=C(Cl)Cl` is 117 to 118 °C; for `O=[N+]([O-])CS(=O)(=O)c1ccccc1F` it is 59 °C; for `Cc1cc(OCc2ccc(-c3ccccc3-c3nnn(C(c4ccccc4)(c4ccccc4)c4ccccc4)n3)cc2)c(CO)c(C)n1` it is 68 to 70 °C. In turn, `CC1(C)CC(=O)Nc2cc(C(=O)Nc3ccccc3)ccc21` had a melting point of 249 to 251 °C. The figure for `Cn1ncc2[nH]c3ccc(-c4cccc(O)c4)cc3c(=O)c21` is over 250 °C; for `O=C1[C@H](CC[C@H](O)c2ccc(F)cc2)[C@@H](c2ccc(O)c(-c3ccccc3)c2)N1c1ccc(F)cc1` it is 113 °C; for `CCOC(=O)c1nc2scc(COCc3ccccc3)c2c(=O)[nH]1` it is 155 to 156 °C. The figure for `O=C1C2=C(NC3(C=N2)OCCO3)c2ccccc21` is 296 to 298 °C. The figure for `COC(=O)CCCc1cc2nc(Cl)ccc2n1S(=O)(=O)c1ccc2nc(C)sc2c1` is 117 °C; for `CN1CCC2(CC1)Nc1cc(Cl)c(Cl)cc1-n1cccc12` it is 214 to 215 °C; for `CCOc1nn(-c2cc(C(F)(F)F)ccn2)cc1CCCOc1cccc(OC(C)(C)C(=O)O)c1` it is 98 to 99 °C.

`Cc1ccc(S(=O)(=O)N2CCN(S(=O)(=O)c3ccc(C)cc3)CC3=CC=C(CN(S(=O)(=O)c4ccc(C)cc4)CC2)S3)cc1` displayed a melting point of 265 to 268 °C.

The compound `Cc1cccc(-c2ccc3c(c2)c(CC(=O)O)cn3Cc2ccc(C(C)(C)C)cc2)c1` yielded a melting point of 91 to 92 °C. For `O=C1[C@H]2CCC[C@H]2Nc2ccccc2N1Cc1cccc2ccccc12` (relative stereo), the melting point lay within 126 to 128 °C.

`COc1c(-c2ccccc2C)c(=O)[nH]c2ccccc12` had a melting point of 208 to 210 °C. As for `C=C(C)c1ccc(C2C(C(=O)c3ccc(C(C)C)cc3)=C(O)C(=O)N2c2ccc(C)nn2)cc1` (stereo not given), the figure is 274 °C.
